Source: ChEMBL document CHEMBL3526033, “Identification of human liver cytochrome P450 enzymes involved in the metabolism of SCH 530348 (Vorapaxar), a potent oral thrombin protease-activated receptor 1 antagonist” (Drug Metab Dispos, 2011)

Key:
[1] = biological target: T1, Cytochrome P450 3A5 (Homo sapiens, UniProt P20815); test: Drug level assessed as human recombinant CYP3A5-mediated drug metabolism treated with 25 uM [14C]vorapaxar after 120 mins by LC-MS/MS analysis in presence of NADPH; assay type: ADME; details: recombinant enzyme, 2 h
[2] = biological target: T2, Cytochrome P450 1A2 (Homo sapiens, UniProt P05177); test: Drug level assessed as human recombinant CYP1A2-mediated drug metabolism treated with 25 uM [14C]vorapaxar after 120 mins by LC-MS/MS analysis in presence of NADPH; assay type: ADME; details: recombinant enzyme, 2 h
T2 sequence (P05177 whole entry): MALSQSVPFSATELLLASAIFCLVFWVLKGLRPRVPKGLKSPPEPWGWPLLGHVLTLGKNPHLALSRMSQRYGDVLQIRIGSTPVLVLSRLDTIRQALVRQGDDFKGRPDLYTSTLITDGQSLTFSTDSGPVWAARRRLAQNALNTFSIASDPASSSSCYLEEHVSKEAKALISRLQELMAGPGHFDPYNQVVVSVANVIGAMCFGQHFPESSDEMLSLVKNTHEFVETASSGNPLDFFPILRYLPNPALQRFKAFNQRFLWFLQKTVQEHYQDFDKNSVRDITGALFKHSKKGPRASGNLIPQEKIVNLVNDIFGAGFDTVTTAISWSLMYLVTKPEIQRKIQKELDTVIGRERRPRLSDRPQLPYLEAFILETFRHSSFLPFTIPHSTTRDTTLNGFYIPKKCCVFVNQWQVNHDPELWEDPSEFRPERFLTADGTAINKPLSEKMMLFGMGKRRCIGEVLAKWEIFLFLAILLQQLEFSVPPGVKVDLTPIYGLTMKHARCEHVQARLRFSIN

[3] = biological target: T3, Cytochrome P450 4F3 (Homo sapiens, UniProt Q08477); test: Drug level assessed as human recombinant CYP4F3A-mediated drug metabolism treated with 25 uM [14C]vorapaxar after 120 mins by LC-MS/MS analysis in presence of NADPH; assay type: ADME; details: recombinant enzyme, 2 h
T3 sequence (Q08477 whole entry): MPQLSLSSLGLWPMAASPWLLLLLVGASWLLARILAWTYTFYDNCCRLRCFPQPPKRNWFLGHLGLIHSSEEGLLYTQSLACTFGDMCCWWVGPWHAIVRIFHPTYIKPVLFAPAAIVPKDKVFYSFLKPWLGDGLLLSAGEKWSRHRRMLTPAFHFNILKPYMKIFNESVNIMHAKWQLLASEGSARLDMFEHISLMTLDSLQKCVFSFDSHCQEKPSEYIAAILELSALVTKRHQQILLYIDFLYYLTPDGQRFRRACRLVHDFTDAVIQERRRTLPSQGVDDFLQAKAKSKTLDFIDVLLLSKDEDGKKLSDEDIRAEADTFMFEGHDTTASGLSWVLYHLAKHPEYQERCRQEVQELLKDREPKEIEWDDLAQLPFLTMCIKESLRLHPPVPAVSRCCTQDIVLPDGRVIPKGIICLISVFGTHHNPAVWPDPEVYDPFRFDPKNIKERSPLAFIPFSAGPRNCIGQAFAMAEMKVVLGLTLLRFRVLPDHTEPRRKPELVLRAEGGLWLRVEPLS

[4] = biological target: T4, Cytochrome P450 1A1 (Homo sapiens, UniProt P04798); test: Drug level assessed as human recombinant CYP1A1-mediated drug metabolism treated with 25 uM [14C]vorapaxar after 120 mins by LC-MS/MS analysis in presence of NADPH; assay type: ADME; details: recombinant enzyme, 2 h
T4 sequence (P04798 whole entry): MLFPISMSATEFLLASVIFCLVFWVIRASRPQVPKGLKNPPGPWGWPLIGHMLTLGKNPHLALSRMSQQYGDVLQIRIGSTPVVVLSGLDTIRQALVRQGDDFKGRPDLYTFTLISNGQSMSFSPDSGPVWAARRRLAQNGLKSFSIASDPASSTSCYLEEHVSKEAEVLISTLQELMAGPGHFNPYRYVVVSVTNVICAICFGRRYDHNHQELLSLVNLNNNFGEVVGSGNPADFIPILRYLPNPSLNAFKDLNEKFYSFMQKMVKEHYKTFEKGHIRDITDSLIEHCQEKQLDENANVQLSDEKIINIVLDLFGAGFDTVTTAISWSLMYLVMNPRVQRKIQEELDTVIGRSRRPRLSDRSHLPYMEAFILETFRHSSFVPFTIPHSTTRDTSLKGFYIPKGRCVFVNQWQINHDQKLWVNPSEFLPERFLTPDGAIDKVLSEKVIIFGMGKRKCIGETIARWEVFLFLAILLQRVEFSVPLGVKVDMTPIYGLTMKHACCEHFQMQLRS

[5] = biological target: T5, Cytochrome P450 2C19 (Homo sapiens, UniProt P33261); test: Drug level assessed as human recombinant CYP2C19-mediated drug metabolism treated with 25 uM [14C]vorapaxar after 120 mins by LC-MS/MS analysis in presence of NADPH; assay type: ADME; details: recombinant enzyme, 2 h
[6] = biological target: T6, Cytochrome P450 3A4 (Homo sapiens, UniProt P08684); test: Drug level in human liver microsomes assessed as CYP3A4-mediated drug metabolism at 25 uM after 120 mins by LC-MS/MS analysis; assay type: ADME; details: 2 h
[7] = biological target: T7, Cytochrome P450 2J2 (Homo sapiens, UniProt P51589); test: Drug level in human liver microsomes assessed as CYP2J2-mediated drug metabolism at 25 uM after 120 mins by LC-MS/MS analysis; assay type: ADME; details: 2 h
T7 sequence (P51589 whole entry): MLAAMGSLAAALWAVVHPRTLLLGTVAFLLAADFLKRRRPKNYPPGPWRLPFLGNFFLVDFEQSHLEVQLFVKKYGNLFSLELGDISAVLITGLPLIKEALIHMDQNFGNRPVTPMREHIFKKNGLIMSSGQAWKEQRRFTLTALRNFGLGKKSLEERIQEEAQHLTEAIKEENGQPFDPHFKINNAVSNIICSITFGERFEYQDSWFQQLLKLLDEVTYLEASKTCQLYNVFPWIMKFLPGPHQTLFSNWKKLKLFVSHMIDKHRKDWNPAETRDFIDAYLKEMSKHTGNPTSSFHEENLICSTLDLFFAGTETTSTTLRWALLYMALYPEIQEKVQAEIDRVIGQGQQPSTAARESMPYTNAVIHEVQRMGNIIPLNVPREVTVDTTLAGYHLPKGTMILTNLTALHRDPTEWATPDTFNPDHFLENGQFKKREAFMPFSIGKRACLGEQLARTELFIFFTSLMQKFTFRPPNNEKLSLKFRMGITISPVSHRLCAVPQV

[8] = system: Liver microsome; test: Drug level in human liver microsomes treated with 10 to 25 uM vorapaxar after 120 mins by LC-MS/MS analysis in presence of sulfaphenazole; assay type: ADME; details: 2 h
[9] = system: Liver microsome; test: Drug level in human liver microsomes treated with 10 to 25 uM vorapaxar after 120 mins by LC-MS/MS analysis in presence of quinidine; assay type: ADME; details: 2 h
[10] = system: Liver microsome; test: Drug level in human liver microsomes treated with 10 to 25 uM vorapaxar after 120 mins by LC-MS/MS analysis in presence of omeprazole; assay type: ADME; details: 2 h
[11] = system: Liver microsome; test: Drug level in human liver microsomes treated with 10 to 25 uM vorapaxar after 120 mins by LC-MS/MS analysis in presence of alpha-napthoflavone; assay type: ADME; details: 2 h
[12] = system: Liver microsome; test: Drug level in human liver microsomes treated with 10 to 25 uM vorapaxar after 120 mins by LC-MS/MS analysis in presence of CYP3A4-specific inhibitory antibody; assay type: ADME; details: 2 h
[13] = system: Liver microsome; test: Drug metabolism in human liver microsomes treated with 10 uM [14C]vorapaxar after 120 mins by LC-MS/MS analysis; assay type: ADME; details: 2 h
[14] = Drug metabolism in human liver S9 fraction treated with 10 uM [14C]vorapaxar after 120 mins by LC-MS/MS analysis; assay type: ADME, subcellular; details: s9, 2 h
[15] = biological target: T4, Cytochrome P450 1A1; test: Activity of human recombinant CYP1A1 assessed as enzyme-mediated drug metabolism treated with 10 uM [14C]vorapaxar after 120 mins by LC-MS/MS analysis in presence of NADPH; assay type: ADME; details: 2 h
[16] = biological target: T2, Cytochrome P450 1A2; test: Activity of human recombinant CYP1A2 assessed as enzyme-mediated drug metabolism treated with 10 uM [14C]vorapaxar after 120 mins by LC-MS/MS analysis in presence of NADPH; assay type: ADME; details: 2 h
[17] = biological target: Cytochrome P450 2C9 (Homo sapiens, UniProt P11712); test: Activity of human recombinant CYP2C9 assessed as enzyme-mediated drug metabolism treated with 10 uM [14C]vorapaxar after 120 mins by LC-MS/MS analysis in presence of NADPH; assay type: ADME; details: 2 h
[18] = biological target: T5, Cytochrome P450 2C19; test: Activity of human recombinant CYP2C19 assessed as enzyme-mediated drug metabolism treated with 10 uM [14C]vorapaxar after 120 mins by LC-MS/MS analysis in presence of NADPH; assay type: ADME; details: 2 h
[19] = biological target: T6, Cytochrome P450 3A4; test: Activity of human recombinant CYP3A4 assessed as enzyme-mediated drug metabolism treated with 10 uM [14C]vorapaxar after 120 mins by LC-MS/MS analysis in presence of NADPH; assay type: ADME; details: 2 h
[20] = biological target: T1, Cytochrome P450 3A5; test: Activity of human recombinant CYP3A5 assessed as enzyme-mediated drug metabolism treated with 10 uM [14C]vorapaxar after 120 mins by LC-MS/MS analysis in presence of NADPH; assay type: ADME; details: 2 h

T1 sequence (P20815 whole entry): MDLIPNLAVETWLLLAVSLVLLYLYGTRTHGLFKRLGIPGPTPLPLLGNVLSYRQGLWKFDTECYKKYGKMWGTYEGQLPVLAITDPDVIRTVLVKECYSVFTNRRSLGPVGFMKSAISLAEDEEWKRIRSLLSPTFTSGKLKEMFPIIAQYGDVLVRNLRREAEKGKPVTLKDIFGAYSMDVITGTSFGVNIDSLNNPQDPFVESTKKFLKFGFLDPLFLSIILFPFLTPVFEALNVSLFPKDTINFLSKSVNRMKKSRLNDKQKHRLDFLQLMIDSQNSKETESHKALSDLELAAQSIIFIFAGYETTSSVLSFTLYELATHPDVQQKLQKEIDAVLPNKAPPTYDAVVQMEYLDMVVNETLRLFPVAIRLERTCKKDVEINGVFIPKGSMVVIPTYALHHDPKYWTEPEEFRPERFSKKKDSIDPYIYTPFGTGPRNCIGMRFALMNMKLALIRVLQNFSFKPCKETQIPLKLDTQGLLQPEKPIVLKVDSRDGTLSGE
T5 sequence (P33261 whole entry): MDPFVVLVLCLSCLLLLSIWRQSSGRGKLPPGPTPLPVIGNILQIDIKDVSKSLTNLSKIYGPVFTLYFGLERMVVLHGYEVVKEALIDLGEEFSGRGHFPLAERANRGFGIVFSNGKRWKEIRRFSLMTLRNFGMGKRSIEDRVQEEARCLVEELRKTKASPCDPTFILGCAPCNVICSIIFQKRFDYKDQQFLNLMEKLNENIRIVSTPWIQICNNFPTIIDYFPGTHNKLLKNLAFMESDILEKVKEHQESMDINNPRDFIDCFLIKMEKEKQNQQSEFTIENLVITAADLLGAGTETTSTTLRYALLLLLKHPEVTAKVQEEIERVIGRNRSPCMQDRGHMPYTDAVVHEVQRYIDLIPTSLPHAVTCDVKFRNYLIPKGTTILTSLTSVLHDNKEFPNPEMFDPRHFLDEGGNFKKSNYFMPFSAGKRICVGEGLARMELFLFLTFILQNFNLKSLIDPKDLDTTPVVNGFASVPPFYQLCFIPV
T6 sequence (P08684 whole entry): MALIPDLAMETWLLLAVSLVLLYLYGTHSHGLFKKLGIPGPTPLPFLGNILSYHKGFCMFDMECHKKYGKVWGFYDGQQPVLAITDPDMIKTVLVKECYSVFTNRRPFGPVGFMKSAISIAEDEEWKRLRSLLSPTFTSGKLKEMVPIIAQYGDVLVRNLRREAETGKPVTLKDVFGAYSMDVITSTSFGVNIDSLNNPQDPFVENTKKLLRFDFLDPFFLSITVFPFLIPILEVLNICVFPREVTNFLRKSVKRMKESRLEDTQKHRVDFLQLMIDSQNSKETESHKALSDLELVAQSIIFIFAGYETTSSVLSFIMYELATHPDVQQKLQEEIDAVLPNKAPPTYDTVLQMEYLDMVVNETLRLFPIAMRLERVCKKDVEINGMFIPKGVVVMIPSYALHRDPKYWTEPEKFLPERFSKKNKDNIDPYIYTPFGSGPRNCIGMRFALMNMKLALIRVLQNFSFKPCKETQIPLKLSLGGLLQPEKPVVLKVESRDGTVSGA
Sequence of Cytochrome P450 2C9 (P11712 whole entry): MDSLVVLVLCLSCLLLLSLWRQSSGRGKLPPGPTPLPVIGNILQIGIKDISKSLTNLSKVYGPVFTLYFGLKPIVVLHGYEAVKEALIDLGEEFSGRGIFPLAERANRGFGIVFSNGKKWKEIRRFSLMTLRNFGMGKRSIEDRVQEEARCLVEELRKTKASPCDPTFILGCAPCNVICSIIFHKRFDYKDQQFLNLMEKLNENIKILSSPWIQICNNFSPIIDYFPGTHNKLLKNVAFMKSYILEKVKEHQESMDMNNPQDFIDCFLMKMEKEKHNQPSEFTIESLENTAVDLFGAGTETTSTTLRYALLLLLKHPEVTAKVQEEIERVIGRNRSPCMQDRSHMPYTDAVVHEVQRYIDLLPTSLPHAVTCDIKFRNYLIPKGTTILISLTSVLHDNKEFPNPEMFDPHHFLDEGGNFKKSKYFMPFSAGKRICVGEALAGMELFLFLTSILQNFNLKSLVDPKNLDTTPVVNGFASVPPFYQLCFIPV

Drug metabolism [1]: metabolite_detected
Drug metabolism [2]: metabolite_detected
Drug metabolism [3]: metabolite_detected
Drug metabolism [4]: metabolite_detected
Drug metabolism [5]: metabolite_detected
Drug metabolism [6]: metabolite_detected
Drug metabolism [7]: metabolite_detected
Drug metabolism [8]: metabolite_detected
Drug metabolism [9]: metabolite_detected
Drug metabolism [10]: metabolite_detected
Drug metabolism [11]: metabolite_detected
Drug metabolism [12]: metabolite_detected
Compound recovery [13]: 5.12%
Compound recovery [14]: 3.42%
Compound recovery [15]: 1.96%
Compound recovery [16]: 0.23%
Compound recovery [17]: below level of quantification
Compound recovery [18]: 5.91%
Compound recovery [19]: 22.1%
Compound recovery [20]: 0.15%
Structure (SMILES): C[C@H]1OC(=O)[C@@H]2C[C@@H]3C[C@H](N)CC[C@H]3[C@H](/C=C/c3ccc(-c4cccc(F)c4)cn3)[C@H]12
